For this assay, the target named is GST-tagged truncated human mutant G2019S LRRK2 (Homo sapiens, UniProt Q5S007, G2019S). Briefly: LRRK2 G2019S Km ATP LanthaScreen assay. Format: biochemical. To be noted: 134 μM ATP (Km ATP), LRRKtide substrate, mean IC50 values; read-out: LRRK2 pIC50 (converted). The gist of the method:
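LanthaScreen TR-FRET read with fluorescein-LRRKtide and 134 μM ATP (Km) in Tris pH 8.5/10 mM MgCl2 buffer. The enzyme was preincubated 15 min with compound at room temperature, and the reaction ran 90 min at ambient temperature. Stopped with EDTA plus Tb anti-phospho-LRRKtide antibody; the 520/495 nm ratio gave a 4-parameter logistic IC50, mean of several runs.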
On to `Cc1c(Nc2ncc3cc(Cl)c(N4CCN(C5COCC5O)CC4)cc3n2)cnn1C` (single isomer, unassigned) [Ex-6.24, (3S,4S) or (3R,4R) 4-(4-{6-chloro-2-[(1,5-dimethyl-1H-pyrazol-4-yl)amino]quinazolin-7-yl}piperazin-1-yl)oxolan-3-ol], for which the IC50 was 0.603 nM.
Turning to `Cc1c(Nc2ncc3cc(Cl)c(N4CCN(C5COCC5O)CC4)cc3n2)cnn1CC(F)F` (single isomer, unassigned) [Ex-6.25, (3S,4S) or (3R,4R) 4-[4-(6-chloro-2-{[1-(2,2-difluoroethyl)-5-methyl-1H-pyrazol-4-yl]amino}quinazolin-7-yl)piperazin-1-yl]oxolan-3-ol], the IC50 is 0.418 nM.
Regarding `Cc1c(Nc2ncc3cc(Cl)c(N4CCN(C5COCC5O)CC4)cc3n2)cnn1CC(F)F` (single isomer, unassigned) [Ex-6.26, (3S,4S) or (3R,4R) 4-[4-(6-chloro-2-{[1-(2,2-difluoroethyl)-5-methyl-1H-pyrazol-4-yl]amino}quinazolin-7-yl)piperazin-1-yl]oxolan-3-ol], the IC50 was 11.5 nM.
In the case of `OC1COCC1N1CCN(c2cc3nc(Nc4cnn(C5CC5(F)F)c4Cl)ncc3cc2Cl)CC1` (single isomer, unassigned) [Ex-6.27, (3S,4S) or (3R,4R) 4-[4-(6-chloro-2-{[5-chloro-1-(2,2-(R) or (S)difluorocyclopropyl)-1H-pyrazol-4-yl]amino}quinazolin-7-yl)piperazin-1-yl]oxolan-3-ol] it was 0.27 nM; in that of `Cn1ncc(Nc2ncc3cc(Cl)c(N4CCN(C5(C)COCC5O)CC4)cc3n2)c1Cl` (single isomer, unassigned) [Ex-6.28, (3S,4S) or (3R,4R) 4-(4-{6-chloro-2-[(5-chloro-1-methyl-1H-pyrazol-4-yl)amino]quinazolin-7-yl}piperazin-1-yl)-4-methyloxolan-3-ol], 0.381 nM; in that of `OC1COCC1N1CCN(c2cc3nc(Nc4cnn(C5CC5(F)F)c4Cl)ncc3cc2Cl)CC1` (single isomer, unassigned) [Ex-6.29, (3S,4S) or (3R,4R) 4-[4-(6-chloro-2-{[5-chloro-1-(2,2-(R) or (S)difluorocyclopropyl)-1H-pyrazol-4-yl]amino}quinazolin-7-yl)piperazin-1-yl)oxolan-3-ol], 15.2 nM.
In the case of `OC1COCC1N1CCN(c2cc3nc(Nc4cnn(C5CC5(F)F)c4Cl)ncc3cc2Cl)CC1` (single isomer, unassigned) [Ex-6.30, (3S,4S) or (3R,4R) 4-[4-(6-chloro-2-{[5-chloro-1-(2,2-(R) or (S)difluorocyclopropyl)-1H-pyrazol-4-yl]amino}quinazolin-7-yl)piperazin-1-yl]oxolan-3-ol] it was 0.9 nM; in that of `OC1COCC1N1CCN(c2cc3nc(Nc4cnn(C5CC5(F)F)c4Cl)ncc3cc2Cl)CC1` (single isomer, unassigned) [Ex-6.31, (3S,4S) or (3R,4R) 4-[4-(6-chloro-2-{[5-chloro-1-(2,2-(R) or (S)difluorocyclopropyl)-1H-pyrazol-4-yl]amino}quinazolin-7-yl)piperazin-1-yl]oxolan-3-ol], 17.9 nM; in that of `Cc1c(Nc2ncc3cc(Cl)c(N4CCN(C5COCC5O)CC4)cc3n2)cnn1CC(F)(F)F` (single isomer, unassigned) [Ex-6.32, (3S,4S) or (3R,4R) 4-[4-(6-chloro-2-{[5-methyl-1-(2,2,2-trifluoroethyl)-1H-pyrazol-4-yl]amino}quinazolin-7-yl)piperazin-1-yl]oxolan-3-ol], 0.608 nM.
Consider `CC1(N2CCN(c3cc4nc(Nc5cnn(C6CC6(F)F)c5Cl)ncc4cc3Cl)CC2)COCC1O` (single isomer, unassigned) [Ex-6.33, (3S,4S) or (3R,4R) 4-[4-(6-chloro-2-{[5-chloro-1-(2,2-(R) or (S)difluorocyclopropyl)-1H-pyrazol-4-yl]amino}quinazolin-7-yl)piperazin-1-yl]-4-methyloxolan-3-ol], for which the IC50 was 0.212 nM.
As for `CC1(N2CCN(c3cc4nc(Nc5cnn(C6CC6(F)F)c5Cl)ncc4cc3Cl)CC2)COCC1O` (single isomer, unassigned) [Ex-6.34, (3S,4S) or (3R,4R) 4-[4-(6-chloro-2-{[5-chloro-1-(2,2-(R) or (S)difluorocyclopropyl)-1H-pyrazol-4-yl]amino}quinazolin-7-yl)piperazin-1-yl]-4-methyloxolan-3-ol], the IC50 is 10.6 nM.
The result for `CC1(N2CCN(c3cc4nc(Nc5cnn(C6CC6(F)F)c5Cl)ncc4cc3Cl)CC2)COCC1O` (single isomer, unassigned) [Ex-6.35, (3S,4S) or (3R,4R) 4-[4-(6-chloro-2-{[5-chloro-1-(2,2-(R) or (S)difluorocyclopropyl)-1H-pyrazol-4-yl]amino}quinazolin-7-yl)piperazin-1-yl]-4-methyloxolan-3-ol] reads 20.8 nM; that for `Cn1ncc(Nc2ncc3cc(Cl)c(N4CCN(C5(C)COCC5O)CC4)cc3n2)c1Cl` (single isomer, unassigned) [Ex-6.36, (3S,4S) or (3R,4R) 4-[4-{6-chloro-2-[(5-chloro-1-methyl-1H-pyrazol-4-yl)amino]quinazolin-7-yl}piperazin-1-yl)-4-methyloxolan-3-ol], 11.2 nM.
The result for `Cc1c(Nc2ncc3cc(Cl)c(N4CCN(C5COCC5O)CC4)cc3n2)cnn1CC(F)(F)F` (single isomer, unassigned) [Ex-6.37, (3S,4S) or (3R,4R) 4-[4-(6-chloro-2-{[5-methyl-1-(2,2,2-trifluoroethyl)-1H-pyrazol-4-yl]amino}quinazolin-7-yl)piperazin-1-yl]oxolan-3-ol] reads 6.35 nM; that for `Cc1c(Nc2ncc3cc(Cl)c(N4CCN(C5(C)COCC5O)CC4)cc3n2)cnn1C1CC1(F)F` (single isomer, unassigned) [Ex-6.38, (3S,4S) or (3R,4R) 4-[4-(6-chloro-2-{[1-(2,2-(R) or (S)difluorocyclopropyl)-5-methyl-1H-pyrazol-4-yl]amino}quinazolin-7-yl)piperazin-1-yl]-4-methyloxolan-3-ol], 0.835 nM.
`Cc1c(Nc2ncc3cc(Cl)c(N4CCN(C5COCC5O)CC4)cc3n2)cnn1C1CC1(F)F` (single isomer, unassigned) [Ex-6.39, (3S,4S) or (3R,4R) 4-[4-(6-chloro-2-{[1-(2,2-(R) or (S)difluorocyclopropyl)-5-methyl-1H-pyrazol-4-yl]amino}quinazolin-7-yl)piperazin-1-yl]oxolan-3-ol]: the IC50 is 0.65 nM.
The result for `Cc1c(Nc2ncc3cc(Cl)c(N4CCN(C5(C)COCC5O)CC4)cc3n2)cnn1C1CC1(F)F` (single isomer, unassigned) [Ex-6.40, (3S,4S) or (3R,4R) 4-[4-(6-chloro-2-{[1-(2,2-(R) or (S)difluorocyclopropyl)-5-methyl-1H-pyrazol-4-yl]amino}quinazolin-7-yl)piperazin-1-yl]-4-methyloxolan-3-ol] reads 0.352 nM; that for `Cc1c(Nc2ncc3cc(Cl)c(N4CCN(C5(C)COCC5O)CC4)cc3n2)cnn1C1CC1(F)F` (single isomer, unassigned) [Ex-6.41, (3S,4S) or (3R,4R) 4-[4-(6-chloro-2-{[1-(2,2-(R) or (S)difluorocyclopropyl)-5-methyl-1H-pyrazol-4-yl]amino}quinazolin-7-yl)piperazin-1-yl]-4-methyloxolan-3-ol], 32.9 nM.

(Values after US20230303540A1 (Merck Sharp & Dohme LLC, priority 2020, published 2023).)
